Laboratory results published in US20260027073A1, “USE OF SMALL-MOLECULE COMPOUND HAVING NAPHTHYLAMINE STRUCTURE” (HANGZHOU PHECDAMED CO., LTD., priority 2023, published 2026).

Assays:
[1] = tested on: chronic epilepsy mouse model; test: PTZ chronic epilepsy model; type: in vivo, ICR mice; conditions: for seizure grade (Racine grading) / latency in platform jumping (Step-down) experiment / Step-through latency, dark avoidance experiment: 30 mg/kg oral gavage, 21 days; for seizure grade (Racine grading): FIG. 63; for latency in platform jumping (Step-down) experiment: FIG. 64; for Step-through latency, dark avoidance experiment: FIG. 65; for serum IL-1β level / serum TNF-α level: 30 mg/kg, to a certain degree, FIG. 66
Description: Clean grade 8-10 week old male ICR mice were selected for the preparation of a chronic epilepsy mouse model. They were randomly divided into four groups: normal control group (Control, 0.5% CMC-Na treatment by oral gavage, n=8), model group (Model, 0.5% CMC-Na treatment by oral gavage, n=8), TJ01-013 treatment group (TJ01-013, 30 mg/kg TJ01-013 by oral gavage, n=8), I-14-1 treatment group (I-14-1, 30 mg/kg I-14-1 by oral gavage, n=8). Starting from the first day of the experiment, at 10-11 am every day, mice in all groups except the normal control group were injected intraperitoneally with PTZ 40 mg/kg and the normal control group was injected with the corresponding volume of saline for a total of 21 days. The drug administration treatment was started right after the start of modeling, and the drug was administered once a day for a total of 21 days, and the corresponding tests were performed at the end of the drug administration.
Epileptic seizure grading standard is based on Racine grading: Grade 0, no convulsive response, manifested as normal behavior state; Grade I, facial muscle spasm, manifested as rhythmic chewing, blinking, moving whiskers, etc.; Grade II, neck muscle spasm, manifested as head nodding with or without tail erecting; Grade III, forelimb lifting, clonic or rhythmic twitching; Grade IV, hindlimb tonic or standing tonic; Grade V, generalized clonic, standing tonic and falling down; loss of balance.
The platform jumping experiment is an experimental method designed to utilize the habit of experimental mice to jump down from a high place immediately to explore the surrounding environment. The experimental mice are placed on a high platform, and at the moment of jumping down, they are given electrical stimulation. Then in order to avoid the electric stimulus, the animals will not jump off the platform, while the mice that are not good at learning and memorizing will maintain their habit and jump off the platform. At the end of each round of the experiment, 75% alcohol were sprayed for wiping to avoid odor interference between the mice. The experiment was conducted after the administration, and the experimental device was a cubic box with a (10 cm×10 cm) electric fence at the bottom and a height of 30 cm, with a platform of 3.2 cm in height and 4.2 cm in diameter inside. The experimental steps and procedures of this experiment were divided into: (1) The mice were put into the bottom of the experimental device, which was not energized at this time, so that they were free to explore and adapt to the environment for 10 s. (2) The mice were placed on the high platform inside the experimental device, and the time at which the mice jumped off the high platform was recorded as Initial latency, and were given electrical stimulation (50 Hz, 20 V, 5 s). (3) After 24 h, the mice were placed on the platform again, and the time at which they jumped off the platform was recorded as Step-down latency. The residence time of the mice on the high platform should not exceed 60 s, and the time exceeding 60 s was still recorded as 60 s.
The step through dark avoidance experiment is an experimental method designed to utilize the tendency of mice to move around in dark environments more than in bright environments. The experimental mice are placed in a bright environment of a bright and dark environment connecting device, and then electrically stimulated when they enter the dark environment. Then in order to avoid the electric stimulus, they will move into the light environment, while mice that are not good at learning and memorizing will maintain their habit and enter the dark environment. At the end of each round of the experiment, 75% alcohol were sprayed for wiping to avoid odor interference between mice. This experiment was conducted at the end of the administration. […]

[2] = tested on: middle artery occlusion model in rats; test: Stroke: middle cerebral artery occlusion (MCAO); type: in vivo, SD rats; conditions: for escape latency (water maze) / number of crossing over the platform (water maze) / apoptosis rate of hippocampal neurons (flow cytometry): 30 mg/kg oral gavage; for escape latency (water maze) / number of crossing over the platform (water maze): 8 weeks; for escape latency (water maze): FIG. 82; for number of crossing over the platform (water maze): FIG. 83; for apoptosis rate of hippocampal neurons (flow cytometry): FIG. 84
Description: 7-8 weeks-old SD male rats were selected and adaptively fed for one week to establish a middle artery occlusion model in rats. After inducing anesthesia in rats using a small animal anesthesia machine, the anesthesia was immediately switched to maintenance, the rats were fixed in the supine position on the operating table, the neck in the middle and the right side of the operative part were shaved, and an incision was made in the middle of the neck after disinfection with alcohol and iodine vapors, and the carotid artery was separated along the tissues under the microscope, to avoid damaging blood vessels and nerves and to reduce the amount of hemorrhage; the electrocoagulation pen was used to cut off small arteries in the paracarotid branch and ligate the external carotid artery, and an another loose knot was played for backup; arterial clips were used to clip the proximal end of internal carotid artery and common carotid artery; the external carotid artery was cut with surgical scissors in the […], the filament was inserted carefully, and the marking point reached the bifurcation of internal and external carotid arteries, which meant that the head of the filament has already reached the middle cerebral artery; the skin was sutured, the symptoms were observed when the animal waked up, and the neurological function was evaluated; the suture line was cut open two hours after the surgery, the filament was drawn out, and ligature the remnant of external carotid artery was ligated tightly. The skin was re-sutured and attention was paid to the postoperative care of the rats. After modeling, drug administration was started in groups, which were divided into three groups: model group (model, treated with 0.5% CMC-Na by oral gavage, n=8) TJ01-013 treatment group (TJ01-013, 30 mg/kg TJ01-013 by oral gavage, n=8), and I-14-1 treatment group (I-14-1, 30 mg/kg I-14-1 by oral gavage, n=8). 8). Another normal control group (Control, 0.5% CMC-Na treatment by oral gavage, n=8) was set up, with performing the corresponding surgical operation, but no carotid artery was ligated and no filament insertion was performed, and the normal control group was administered for a total of 8 weeks, and at the end of the administration, the cognitive function of the rats was examined by using the water maze.
The night before the experiment begins, clean the laboratory and the water maze, the old water in the water maze is drained, the animal excreta should be cleaned up, and the laboratory is ventilated and free of special odor. The water maze was filled with fresh water, and the height of the water surface should be about 2 cm higher than the platform, and the four groups of rats underwent the water maze acclimatization training for 5 days. The above training was divided into a 4-day localization navigation experiment and a 1-day spatial exploration experiment. The water maze device was a circular pool, which was divided into quadrants I, II, III and IV with four equidistant points on the wall, and a circular hidden platform was placed in the center of the fourth quadrant. References were around the pool and kept unchanged, the pool and the platform were black, and black ink was poured into the water and mixed thoroughly so that the rats could not see the circular platform. The temperature of the water was kept at 22˜24° C. and the light in the room was stabilized. For each group of rats, a water maze test was performed at the end of drug administration to examine the cognitive status of the experimental animals. […] The four groups of rats underwent this training for 4 days, four times a day, two times in the morning and two times in the afternoon. At the end of each day, the experimenter thoroughly cleaned the water maze apparatus to prevent the odor of the rats in the water maze from affecting the results of the second day of the experiment. […]

## O=C(O)C[S+]([O-])c1cc(NS(=O)(=O)c2ccc(Br)cc2)c2ccccc2c1O (stereo not drawn) [I-1]
[1]
  seizure grade (Racine grading): significant difference in reducing seizures
  latency in platform jumping (Step-down) experiment: increase the Initial latency to a certain degree
  Step-through latency, dark avoidance experiment: increase the latency to a certain extent
  serum IL-1β level: reduce
  serum TNF-α level: reduce
[1]; both 30 mg/kg, per readout of the block
  treatment effect of TJ01-013 compared with I-14-1: significantly better
[2]
  escape latency (water maze): shorten the escape latency
  number of crossing over the platform (water maze): increased
  apoptosis rate of hippocampal neurons (flow cytometry): significantly reduce
[2]; per readout of the block
  therapeutic effect of TJ01-013 compared with I-14-1: significantly better

## O=C(O)C[S+]([O-])c1cc(NS(=O)(=O)c2ccc(C(F)(F)F)cc2)c2ccccc2c1O (stereo not drawn) [I-14-1]
[1]
  seizure grade (Racine grading): reduce the seizure grade
  latency in platform jumping (Step-down) experiment: increase the Initial latency to a certain degree
  Step-through latency, dark avoidance experiment: increase the latency to a certain extent
  serum IL-1β level: reduce
  serum TNF-α level: reduce
[2]
  escape latency (water maze): shorten the escape latency
  number of crossing over the platform (water maze): increased
  apoptosis rate of hippocampal neurons (flow cytometry): significantly reduce
